“And” between values parts separate entries of the source, which are not always exact repeats. Equal entries are not always repeated.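 A five-concentration, 48-hour dose response in 96-well plates underlies each endpoint, interpolated linearly between surrounding concentrations. The concentration for 50% growth inhibition is given as GI50. TGI: total growth inhibition.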 Where a SMILES comes first, the peptide text is derived from it. The star is where a group is joined. Cbz = O=C(OCc1ccccc1)*; CH2Cl = ClC*
How the values were obtained:
Assay in all cases: DTP human tumour cell line panel, 48 h
[1] = test system: ACHN renal
[2] = test system: HS 578T breast
[3] = test system: KM12 colon
[4] = test system: NCI-H226 lung
[5] = test system: OVCAR-4 ovarian
[6] = test system: PC-3 prostate
[7] = test system: RXF 393 renal
[8] = test system: SK-MEL-2 melanoma
[9] = test system: SR leukemia
[10] = test system: UO-31 renal

SMILES | GI50 [1] | TGI [1] [µM] | GI50 [2] | TGI [2] [µM] | GI50 [3] [µM] | TGI [3] [µM] | GI50 [4] [µM] | TGI [4] [µM] | GI50 [5] [µM] | TGI [5] [µM] | GI50 [6] [µM] | TGI [6] [µM] | GI50 [7] [µM] | TGI [7] | GI50 [8] [µM] | TGI [8] | GI50 [9] [µM] | TGI [9] [µM] | GI50 [10] [µM] | TGI [10]
Nc1nc(/C=C\c2ccc([N+](=O)[O-])s2)nc(N2CCCC2)n1 | 0.743 µM | 10.9 | 12.9 µM | 59.7 | 1.22 | 6.51 | 3.32 | 21.7 | 5 | 14.1 | 3.92 | 21.9 | 3.99 | 21.1 µM | 12.9 | 27.9 µM | 1.62 | 6.49 | 7.58 | 22.2 µM
CNCC#Cc1c(F)ccc2c1/C(=C/c1[nH]ccc1OC)C(=O)N2 | 0.053 µM | 2.64 | 0.195 µM | 3.68 | 0.0565 | 2.41 | 0.211 | 1.36 | 0.495 | 3.2 | 0.32 | 2.88 | 0.0454 | 0.147 µM | 0.0799 | 0.369 µM | 0.0715 | 0.513 | 0.13 | 2.6 µM
C#C[C@]1(O)CCC2C3CCc4cc(O)ccc4C3CC[C@@]21C (some centres not stated) | 9.42 µM | 85.1 | 3.08 µM | 17.7 | 3.14 | 13.9 | 10.3 | 30.8 | 6.76 | 33.6 | 5.48 | 42.4 | 4.66 | 17.7 µM | 5.81 | 26.8 µM | 1.24 | 87.4 | 6.81 | 28.8 µM
COc1cc2c(c(OC)c1OC)-c1ccc(SC)c(=O)cc1C(NC=O)CC2 (configuration not stated) | – | > 100 | – | > 75.5 | – | < 0.0138 | – | 0.754 | – | > 100 | – | > 100 | – | > 67.9 µM | – | > 94.7 µM | – | 36.6 | – | > 100 µM
Cc1ccc(NC(=O)CC2CC2)cc1-c1ccc(C(=O)NCC2CC2)cc1 | > 25 µM | > 25 | > 25 µM | > 25 | > 25 | > 25 | > 25 | > 25 | > 25 | > 25 | > 25 | > 25 | > 25 | > 25 µM | > 25 | > 25 µM | 13.5 | > 25 | > 25 | > 25 µM
CS(=O)(=O)CCNCc1nc(-c2ccc3ncnc(Nc4ccc(OCc5cccc(C(F)(F)F)c5)cc4)c3c2)cs1 | > 21.9 µM | > 25 | 9.11 µM | > 25 | > 25 | > 25 | > 25 | > 25 | > 25 | > 25 | > 23.6 | > 25 | 5.57 | > 25 µM | 8.7 | > 22.1 µM | > 22.2 | > 25 | > 22.6 | > 25 µM
NCCNc1c2c(c(NCCN)c3[nH]ccc13)C(=O)c1ccccc1C2=O | 0.124 µM | 0.706 | 0.012 µM | 0.219 | 0.191 | 0.957 | 0.198 | 0.896 | 0.296 | 1.34 | 0.631 | 2.45 | 0.0488 | 0.525 µM | 0.785 | 2.41 µM | 0.0527 | 0.334 | 13.8 | > 60 µM
Cc1c2c(C#N)nccc2c(C)c2c1c1ccccc1n2Cc1ccccc1 | – | > 100 | – | > 100 | – | > 100 | – | > 100 | – | > 100 | – | > 100 | – | > 100 µM | – | > 100 µM | – | > 100 | – | > 100 µM
COc1cc(Cn2c(-c3ccccc3)c(Cl)c3c2-c2oncc2CC3)cc(OC)c1 | 9.31 µM | > 100 | 3.71 µM | 82.3 | 4.19 | > 100 | 13 | 43.3 | 6.57 | 79.8 | 7.12 | > 100 | 5.96 | 21.5 µM | 10.6 | > 100 µM | 2.92 | 15.5 | 4.16 | 27.7 µM
COc1cc2c(cc1OCCCNC(=O)c1cccc3c(=O)c4ccccc4[nH]c13)N=C[C@@H]1CCCN1C2=O | 0.0197 µM | > 100 | < 0.01 µM | 0.121 | – | 13.2 | < 0.01 | < 0.01 | < 0.01 | 10.8 | < 0.011 | 0.949 | 0.0865 | 0.301 µM | 2.37 | 4.82 µM | – | > 45.4 | – | 16.9 µM
CCSc1ncnc2c1ncn2C1OC(CO)C(O)C1O (configuration not stated) | 0.425 µM | > 100 | 0.975 µM | 34 | 0.702 | > 100 | 0.845 | > 100 | 9.87 | > 100 | 0.692 | > 71.3 | 16 | > 90.2 µM | 24.1 | > 100 µM | 25.3 | > 100 | 0.405 | > 100 µM
COc1c(OC[C@H](O)CN2CCOCC2)ccc2c3n(c(=NC(=O)c4cccnc4C)nc12)CCN3 | 0.411 µM | > 50 | 0.15 µM | > 50 | 40.7 | > 50 | 15.4 | > 50 | > 50 | > 50 | 0.326 | > 50 | 0.192 | 2.38 µM | > 50 | > 50 µM | > 50 | > 50 | 0.263 | > 50 µM
O=C(O)Cc1cc(Cl)ccc1O | – | > 100 | – | > 100 | – | > 100 | – | > 100 | – | > 100 | – | > 100 | – | > 100 µM | – | > 100 µM | – | > 100 | – | > 100 µM
CC(C)CC(NC(=O)OCc1ccccc1)C(=O)NC(Cc1ccccc1)C(=O)CCl (stereo not drawn) (Cbz-Leu-Phe-CH2Cl; configuration not given here) | – | 11.3 | – | 25.7 | – | 35.3 | – | 3.98 | – | 4.69 | – | 9.41 | – | 3.3 µM | – | 7.37 µM | – | 4.66 | – | 18.2 µM
C=C(Cl)C(Br)(CCl)CCC(Br)C(C)(C)Cl (configuration not stated) | 3.94 µM | 9.71 | 2.62 µM | > 27.9 | 2.94 | 9.46 | 1.91 | 5.22 | 3.25 | 8.24 | – | 14.2 | – | 6.98 µM and 5.42 µM | 3.14 | 7.42 µM | – | 7.28 | 2.17 | 8.19 µM and 4.53 µM
CC(=O)OC12C=CC(=O)N1c1ccccc1C(=O)O2 (configuration not stated) | – | > 100 | > 100 µM | > 100 | – | > 100 | – | > 100 | – | > 100 | > 100 | > 100 | – | > 100 µM | – | > 100 µM | – | > 100 | – | > 100 µM
COc1cc(-c2cc(-c3cc4c([nH]c5ccccc54)c(-c4cc(OC)c(OC)c(OC)c4)n3)cc(-c3ccccc3)n2)cc(OC)c1OC | 4.57 µM | > 100 | 6.09 µM | > 100 | 4.09 | > 100 | 7.56 | > 100 | 5.31 | 74.2 | 3.59 | 32.3 | 2.7 | 12.2 µM | 2.58 | 6.36 µM | 3.56 | > 100 | 3.02 | 74.4 µM
C[C@@H]1CC[C@@H]2[C@@H]1[C@H](OC(=O)/C=C/c1ccccc1)[C@]1(C3CCCCC3)C[C@@H](OC(=O)CO)[C@@]2(C)O1 | – | – | 0.0237 µM | 0.0978 | 3.1 | 10.8 | 2.06 | 5.56 | 3.92 | 16 | 3.04 | 11.3 | 0.0779 | 3.16 µM | 4.03 | 16.1 µM | 2.6 | 6.9 | 0.015 | 0.03 µM
Nc1c(C(=O)Nc2ccncc2)sc2nc3c(cc12)CCCCCCCC3 | 0.889 µM | 1.6 | 1.08 µM | 2.54 | 0.877 | 1.62 | 0.919 | 2.03 | 0.861 | 1.6 | 0.866 | 1.72 | 0.938 | 1.7 µM | 0.975 | 1.79 µM | 1.62 | 50 | 0.772 | 1.49 µM
COc1ccc(-c2nc3ccc(-c4nc5ccc(N6CCN(c7ccccc7)CC6)cc5[nH]4)cc3[nH]2)cc1OC | 2.28 µM | 10.2 | 2.25 µM | 4.93 | 1.84 | 4.01 | 14.5 | 32.6 | 1.52 | 3.04 | 1.59 | 3.26 | 1.59 | 3.41 µM | 2.04 | 4.07 µM | 0.341 | 2.83 | 51.4 | > 100 µM
COc1cccc2c1C(=O)c1c(O)c3c(c(O)c1C2=O)C[C@](O)(C(=O)CO)C[C@H]3O[C@@H]1C[C@@H](NC(=O)CCCCCN(C)C2(c3ccc(F)cc3)CC3CCC2C3)[C@H](O)[C@@H](C)O1 (some centres not stated) | 1.75 µM | 6.66 | 8.26 µM | 21.6 | – | – | 6.68 | 16.9 | 1.09 | 2.69 | 0.994 | 2.06 | 2.71 | 10.5 µM | 1.18 | 2.52 µM | 0.223 | 1.64 | 6.1 | 12.5 µM
CC(C)Oc1ccc2cc(-c3nn(CC4CCNCC4)c4ncnc(N)c34)ccc2c1 | 10.5 µM | 22.2 | 9.4 µM | 32.2 | 12.6 | 26.4 | 17.4 | 35.2 | 5.24 | 19.5 | 12 | 25.8 | 2.78 | 9.73 µM | 10.8 | 24.4 µM | 1.53 | 4.44 | 4.15 | 18.9 µM
COc1ccc(-c2nn(-c3ccc(NC(=O)c4ccc(Cl)c(Cl)c4)cc3)cc2-c2ccncc2)cc1Cl | > 13.2 µM | > 50 | 1.05 µM | 3.37 | 1.59 | > 50 | > 28.2 | > 50 | > 14.1 | > 50 | 2.42 | > 50 | 0.804 | 1.75 µM | – | – | 2.29 | > 50 | 2.07 | > 50 µM
COc1ccc(Nc2nnc(-c3cc(O)ccc3O)s2)cc1 | > 50 µM | > 50 | 19.7 µM | > 50 | 32.6 | > 50 | 11 | 39.9 | 11.7 | > 50 | 34.4 | > 50 | 30.6 | > 50 µM | 23.1 | > 50 µM | 1.41 | 34.2 | 47.3 | > 50 µM
Cn1cc(C2=C(c3cn(CCCCO)c4ccccc34)C(=O)NC2=O)c2ccccc21 | 6.38 µM | > 23.4 | 4.87 µM | > 25 | 7.09 | > 23 | 7.55 | > 25 | 13.9 | > 25 | 9.38 | > 25 | 3.92 | 10.8 µM | 7.65 | 21.6 µM | 6.05 | 21.4 | 6.33 | > 20.1 µM
COc1cc(NCc2ccc3nc(N)nc(N)c3c2C)cc(OC)c1OC (tested in a mixture with another compound) | 0.0736 µM and 0.025 µM | 32.8 | 29 µM and 8.3 µM | – | – | 46.6 | 0.0892 | 52.8 | 0.15 | 99.8 | – | 37.4 | – | 27.5 µM | 0.339 | 42.3 µM and 55.1 µM | – | > 44.4 | – | –
CN(C)C(n1cc2c(c1)-c1ccc(Cl)cc1C(c1ccccc1F)=NC2)n1cc2c(c1)-c1ccc(Cl)cc1C(c1ccccc1F)=NC2 | – | > 100 | – | > 100 | – | – | – | > 100 | – | > 100 | – | > 100 | – | 66.6 µM | – | > 100 µM | – | > 100 | – | > 100 µM
